Assay results published in patent US10272053B2, “Nanoparticle targeted drug delivery to the lungs using extra-testicular sertoli cells” (UNIVERSITY OF SOUTH FLORIDA, priority 2008, dated 2019).

Experiment: Quantification of curcumin in lungs of injected asthmatic mice (UV absorbance)
Type: in vivo, mouse
Details: IV SCET
Protocol: […] Each lung was placed in a labeled container with 1 ml PBS. The lungs were then sonicated for 10 seconds by the Sonic Dismembrinator 60 (Fisher Scientific) to lyse the Sertoli cells and release the curcumin nanoparticles. The curcumin was then separated from the nanoparticles by adding 500 μl DMSO to each container. The suspension was then centrifuged at 1200 rpm for 10 minutes and the supernatant was collected. A UV spectrum was collected from each supernatant sample.
In addition to normal mice, some female C57BL/6 and BALB/c mice were sensitized by intraperitoneal injection (i.p.) of 10 μl ovalbumin (OVA) with alum as previously described to mimic acute allergic asthma (Weggman, M. Animal models of chronic experimental asthma—strategies for the identification of new therapeutic targets. Occup Med Toxicol. 3 (Suppl 1) (2008); Temelkovski J, Hogan S P, Shepherd D P, Foster P S, Kumar R K. An improved murinemodel of asthma: selective airway inflammation, epithelial lesions and increased methacholine responsiveness following chronic exposure to aerosolised allergen. Thorax. 10, 849-56 (1998)). The mice were challenged weekly for 3 weeks with an intranasal injection (i.n.) of 25 μl OVA (20 mg/ml). One hour after the last i.n. challenge, the treatment group (n=7) was injected via the tail vein with pre-loaded, pre-labeled SCET (8×10^6) that contained nanoparticles coupled with […] curcumin dose. Others asthmatic mice were not injected with SCET to serve as untreated controls (n=6). […]
Each lung was placed in a labeled container with 1 ml PBS. The lungs were then sonicated for 10 seconds by the Sonic Dismembrinator 60 (Fisher Scientific) to lyse the Sertoli cells and release the curcumin nanoparticles. The curcumn was then separated from the nanoparticles by adding 500 μl DMSO to each container. The suspension was then centrifuged at 1200 rpm for 10 minutes and the supernatant was collected. A UV spectrum was collected from each supernatant sample. Data was presented for absorbance assays of Sertoli cells, nanoparticles and curcumin from all samples from all mice, including a sample of the nanoparticle pre-loaded, pre-labeled SC injectable (8×10^6) were replicated and the mean values of SCs, nanoparticles and curcumin were expressed as a percentage of the mean value determined in the pre-loaded, pre-labeled Sertloli cell injectable (8×10^6)

COc1cc(/C=C/C(=O)CC(=O)/C=C/c2ccc(O)c(OC)c2)ccc1O [curcumin]
80%: percentage of injected curcumin load present in the lungs (15 minutes post-injection) | delivery of curcumin throughout the pulmonary tissue (time not stated) | percentage of total curcumin in the injected SCET found in the lungs (asthmatic mice, 25 hours following injection) | percentage of injected curcumin load present in the lungs (asthmatic mice, one hour post-injection)
